In brackets after ≈: the same amount, converted by molar mass.
What was measured:
[1] = target: T1, P-selectin glycoprotein ligand 1 (Homo sapiens, UniProt Q14242); experiment: Inhibition of recombinant PSGL-1 by surface plasmon resonance assay
T1 sequence (Q14242 whole entry): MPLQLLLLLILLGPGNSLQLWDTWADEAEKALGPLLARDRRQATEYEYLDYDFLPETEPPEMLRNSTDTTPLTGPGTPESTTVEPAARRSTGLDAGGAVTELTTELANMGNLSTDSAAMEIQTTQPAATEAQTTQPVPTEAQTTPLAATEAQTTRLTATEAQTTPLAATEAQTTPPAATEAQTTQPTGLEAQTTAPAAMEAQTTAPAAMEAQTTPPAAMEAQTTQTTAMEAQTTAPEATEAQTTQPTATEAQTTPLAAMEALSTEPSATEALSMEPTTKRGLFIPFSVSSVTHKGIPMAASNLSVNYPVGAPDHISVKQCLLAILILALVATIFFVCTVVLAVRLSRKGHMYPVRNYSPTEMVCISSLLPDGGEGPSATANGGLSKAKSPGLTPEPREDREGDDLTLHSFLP

[2] = target: T2, P-selectin glycoprotein ligand 1 (Homo sapiens) (UniProt Q14242); experiment: Inhibition of recombinant PSGL-1 at 250 uM by surface plasmon resonance assay
T2 sequence (whole entry): T1 sequence (Q14242 whole entry)

[3] = target: CYP2C9 (Homo sapiens, UniProt P11712); experiment: Inhibition of CYP2C9 at 3 uM; type: ADME
[4] = Aqueous solubility of the compound at pH 6.6; type: physicochemical; conditions: aqueous solution
[5] = Clearance in Sprague-Dawley rat at 3 mg/kg, iv and 10 mg/kg, po; type: ADME, organism-based; conditions: in vivo
[6] = Oral bioavailability in Sprague-Dawley rat at 10 mg/kg; type: ADME, organism-based; conditions: in vivo
[7] = system: Rattus norvegicus; experiment: Dose normalized AUC in Sprague-Dawley rat measured per mg of plasma at 3 mg/kg, iv and 10 mg/kg, po; type: ADME, organism-based; conditions: in vivo
[8] = system: Mus musculus; experiment: Reduction of leukocytes rolling flux in acute intravital microscopy model of C57B6 mouse cremasteric postcapillary venules at 50 mg/kg, po after 35 mins relative to control; type: functional; parameters: scale not given: the % may be the effect or the level left

Sequence of CYP2C9 (P11712 whole entry): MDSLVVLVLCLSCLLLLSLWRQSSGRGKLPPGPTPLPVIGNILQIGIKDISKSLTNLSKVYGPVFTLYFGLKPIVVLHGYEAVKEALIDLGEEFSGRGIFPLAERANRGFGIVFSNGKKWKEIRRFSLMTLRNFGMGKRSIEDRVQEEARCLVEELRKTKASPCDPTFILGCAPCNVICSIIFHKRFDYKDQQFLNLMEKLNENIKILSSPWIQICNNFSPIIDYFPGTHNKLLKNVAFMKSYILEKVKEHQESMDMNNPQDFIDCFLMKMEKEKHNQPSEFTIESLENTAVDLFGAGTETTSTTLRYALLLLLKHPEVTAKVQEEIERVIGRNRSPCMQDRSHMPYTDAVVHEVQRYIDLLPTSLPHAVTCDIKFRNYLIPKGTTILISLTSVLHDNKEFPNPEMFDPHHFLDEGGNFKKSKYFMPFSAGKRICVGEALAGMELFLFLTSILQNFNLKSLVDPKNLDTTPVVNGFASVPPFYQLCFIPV

inhibition [2] [%]	inhibition at 3 µM [3] [%]	solubility [4] [µg/mL]	clearance [5] [mL/min/kg]	bioavailability [6] [%]	AUC [7] [ng·h/mL]	Structure (SMILES)	other results
						O=C(O)c1c(O)c(Cc2ccccc2)nc2c3c(ccc12)CCCC3	IC50 [1]: 413 µM
47	17					Cc1cc(C)c2nc(C3(c4ccc(Cl)cc4)CC3)c(O)c(C(=O)O)c2c1	
< 10	81					CCc1cc(C(F)(F)F)c2nc(C3(c4ccc(Cl)cc4)CC3)c(O)c(C(=O)O)c2c1	
49		1550 (≈ 4130 µM)				CC(Cc1ccccc1)c1nc2c(C(F)(F)F)cccc2c(C(=O)O)c1O (stereo unspecified)	
40	42					Cc1cc(C(F)(F)F)cc2c(C(=O)O)c(O)c(C3(c4ccc(Cl)cc4)CC3)nc12	
26						COc1ccc(C2(c3nc4c(C(F)(F)F)cccc4c(C(=O)O)c3O)CC2)cc1	
55		600 (≈ 1600 µM)				CCC(c1ccccc1)c1nc2c(C(F)(F)F)cccc2c(C(=O)O)c1O (stereo unspecified)	
65	72					Cc1cc(C(F)(F)F)c2nc(C3(c4ccc(Cl)cc4)CC3)c(O)c(C(=O)O)c2c1	
47		200 (≈ 453 µM)	0.4	31	13800	O=C(O)c1c(O)c(C2(c3ccc(C(F)(F)F)cc3)CC2)nc2c(C(F)(F)F)cccc12	
29						O=C(O)c1c(O)c(C2(c3ccc(OC(F)(F)F)cc3)CC2)nc2c(C(F)(F)F)cccc12	
< 10	72					O=C(O)c1c(O)c(C2(c3ccc(Cl)cc3)CC2)nc2c(C(F)(F)F)cc(Cl)cc12	
59		2810 (≈ 7490 µM)	3.7	93	1472	CC(C)(c1ccccc1)c1nc2c(C(F)(F)F)cccc2c(C(=O)O)c1O	
< 10	43					CCc1cc(C(F)(F)F)cc2c(C(=O)O)c(O)c(C3(c4ccc(Cl)cc4)CC3)nc12	
< 10	65					O=C(O)c1c(O)c(C2(c3ccc(Cl)cc3)CC2)nc2c(C(F)(F)F)cc(Br)cc12	
						CC(=O)N[C@H]1[C@H]([C@H](O)[C@H](O)CO)O[C@@](O[C@H]2[C@@H](O)[C@@H](CO)O[C@@H](O[C@@H]([C@H](O[C@@H]3O[C@@H](C)[C@@H](O)[C@@H](O)[C@@H]3O)[C@H](C=O)NC(C)=O)[C@H](O)CO)[C@@H]2O)(C(=O)O)C[C@@H]1O [SIALYL LEWIS X]	IC50 [1]: 15000 µM
		190 (≈ 517 µM)	7	75	1735	Cc1ccc2c(C(=O)O)c(O)c(C3(c4ccc(Cl)cc4)CC3)nc2c1C	
57		760 (≈ 1860 µM)	2.4	19	1336	O=C(O)c1c(O)c(C2(c3ccccc3Cl)CC2)nc2c(C(F)(F)F)cccc12	
		1500 (≈ 3180 µM)	1	44	5035	O=C(O)c1c(O)c(C2(c3ccccc3)CC2)nc2c(C(O)(C(F)(F)F)C(F)(F)F)cccc12	Activity [8]: 60%
46		680 (≈ 1810 µM)				CC(Cc1nc2c(C(F)(F)F)cccc2c(C(=O)O)c1O)c1ccccc1 (stereo unspecified)	
			9	66	1259	CC(c1ccccc1)c1nc2c3c(ccc2c(C(=O)O)c1O)CCCC3 (stereo unspecified)	IC50 [1]: 175 µM
35		700 (≈ 1880 µM)	28	49	340	O=C(O)c1c(O)c(C2Cc3ccccc3C2)nc2c(C(F)(F)F)cccc12	
45		800 (≈ 2230 µM)				O=C(O)c1c(O)c(C2Cc3ccccc32)nc2c(C(F)(F)F)cccc12 (stereo unspecified)	
46		1000 (≈ 2270 µM)				O=C(O)c1c(O)c(C2(c3cccc(C(F)(F)F)c3)CC2)nc2c(C(F)(F)F)cccc12	
